Assay results as given in patent EP0942911B1, “BENZOPYRANOPYRROLE AND BENZOPYRANOPYRIDINE ALPHA-1 ADRENERGIC COMPOUNDS” (Abbott Laboratories, priority 1996, dated 1998).
Structures can show the parent of a compound that is named as a salt. Where two headings read alike, the source gives them in different places.

Tests used:
Test in all cases: biochemical
[1] = molecular target: T1, α-1A adrenoreceptor (rat submaxillary gland) (Rattus norvegicus, UniProt P43140); assay type: binding
T1 sequence (P43140 1-466): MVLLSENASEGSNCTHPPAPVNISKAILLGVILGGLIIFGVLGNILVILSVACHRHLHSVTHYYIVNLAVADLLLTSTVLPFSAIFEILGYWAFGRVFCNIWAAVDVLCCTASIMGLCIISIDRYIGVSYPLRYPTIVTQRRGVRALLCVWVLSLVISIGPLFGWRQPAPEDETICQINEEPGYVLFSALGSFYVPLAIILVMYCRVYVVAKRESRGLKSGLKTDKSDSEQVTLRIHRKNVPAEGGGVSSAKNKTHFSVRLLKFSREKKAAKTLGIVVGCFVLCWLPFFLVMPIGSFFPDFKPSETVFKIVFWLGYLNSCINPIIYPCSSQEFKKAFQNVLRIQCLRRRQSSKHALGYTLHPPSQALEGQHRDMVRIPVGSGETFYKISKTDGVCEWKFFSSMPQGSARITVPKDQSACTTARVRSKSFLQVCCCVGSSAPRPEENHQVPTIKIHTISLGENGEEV
Method in brief: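 Radioligand binding to α-1A sites in membrane homogenates of rat submaxillary gland, run after Greengrass and Bremner. Bound radioactivity counted by liquid scintillation.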

[2] = molecular target: T2, α-1b adrenoreceptor (Mesocricetus auratus, UniProt P18841); assay type: binding, hamster
T2 sequence (P18841 1-515): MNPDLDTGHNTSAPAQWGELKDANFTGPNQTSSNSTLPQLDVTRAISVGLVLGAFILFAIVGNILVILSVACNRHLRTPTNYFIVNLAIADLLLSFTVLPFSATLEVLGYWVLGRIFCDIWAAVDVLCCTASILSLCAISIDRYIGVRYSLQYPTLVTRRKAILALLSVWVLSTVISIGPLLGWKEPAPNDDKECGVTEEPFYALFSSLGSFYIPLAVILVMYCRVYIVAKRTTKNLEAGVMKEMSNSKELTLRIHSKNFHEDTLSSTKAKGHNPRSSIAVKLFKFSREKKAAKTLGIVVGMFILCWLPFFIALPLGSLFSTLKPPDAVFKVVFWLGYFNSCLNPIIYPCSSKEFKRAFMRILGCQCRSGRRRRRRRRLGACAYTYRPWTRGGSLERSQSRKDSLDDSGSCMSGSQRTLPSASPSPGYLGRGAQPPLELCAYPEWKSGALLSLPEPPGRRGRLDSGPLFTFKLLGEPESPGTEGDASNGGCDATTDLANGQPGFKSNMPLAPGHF
Method in brief: (§1)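 Cloned α-1a (bovine), α-1b (hamster) and α-1d (rat) adrenoreceptors were stably expressed in mouse LTK fibroblasts; membranes from roller-bottle cultures were used. Native α-1A sites came from rat submaxillary gland. Radioligand binding followed Greengrass and Bremner, with liquid scintillation read-out.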

[3] = molecular target: T3, α-1a adrenoreceptor (Bos taurus, UniProt P18130); assay type: binding, bovine
T3 sequence (P18130 1-466): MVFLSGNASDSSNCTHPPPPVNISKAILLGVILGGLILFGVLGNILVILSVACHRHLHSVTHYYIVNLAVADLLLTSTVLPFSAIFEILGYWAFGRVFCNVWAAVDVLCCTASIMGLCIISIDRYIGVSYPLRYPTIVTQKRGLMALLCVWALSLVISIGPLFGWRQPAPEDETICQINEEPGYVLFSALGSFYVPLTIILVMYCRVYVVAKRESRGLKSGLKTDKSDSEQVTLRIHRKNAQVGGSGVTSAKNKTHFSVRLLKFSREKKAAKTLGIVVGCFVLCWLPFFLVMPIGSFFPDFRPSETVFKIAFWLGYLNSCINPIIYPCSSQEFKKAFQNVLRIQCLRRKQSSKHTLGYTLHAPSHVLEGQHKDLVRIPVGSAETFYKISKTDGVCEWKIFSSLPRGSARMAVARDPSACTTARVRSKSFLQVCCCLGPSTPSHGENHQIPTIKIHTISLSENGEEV
Method in brief: as §1

[4] = [3H]-prazosin radioligand, rat submaxillary gland membranes, read-out: Radioligand Binding (Ki, nM) 1A (Rat)
[5] = [3H]-prazosin radioligand, cloned receptor in LTK cell membranes, read-out: Radioligand Binding (Ki, nM) 1b (Hamster)
[6] = [3H]-prazosin radioligand, cloned receptor in LTK cell membranes, read-out: Radioligand Binding (Ki, nM) 1a (Bovine)
[7] = read-out: Radioligand Binding (Ki, nM) 1A (Rat)
[8] = read-out: Radioligand Binding (Ki, nM) 1b (Hamster)
[9] = read-out: Radioligand Binding (Ki, nM) 1a (Bovine)

Compound | Ki [1, 4] | Ki [2, 5] | Ki [3, 6] | Ki [1, 7] | Ki [2, 8] | Ki [3, 9] | also measured
3-[4-((3aR,9bR)-cis-9-Methoxy-1,2,3,3a,4,9b-hexahydro-[1]-benzopyrano[3,4-c]pyrrol-2-yl]butyl]-7-methoxy-pyrido[3',2':4,5]thieno[3,2-d]pyrimidine-2,4(1H,3H)-dione hydrochloride [Example 33] | 0.811 nM | 10.5 nM | 0.082 nM |  |  |  | 
COc1ccc2c(c1)OC[C@H]1CN(CCn3c(=O)[nH]c4c(sc5ccccc54)c3=O)C[C@@H]21.Cl (racemic) [Example 63, 3-[2-((±)-cis-7-Methoxy-1,2,3,3a,4,9b-hexahydro-[1]-benzopyrano[3,4-c]pyrrol-2-yl)ethyl]-[1]benzthieno[3,2-d]pyrimidine-2,4(1H,3H)-dione hydrochloride] |  |  |  | 51.2 nM | 92.2 nM | 11.2 nM | 
COc1ccc2c(c1)OC[C@H]1CN(CCCn3c(=O)[nH]c4c(sc5ccccc54)c3=O)C[C@@H]21.Cl (racemic) [Example 64, 3-[3-((±)-cis-7-Methoxy-1,2,3,3a,4,9b-hexahydro-[1]-benzopyrano[3,4-c]pyrrol-2-yl)propyl]-[1]benzthieno[3,2-d]pyrimidine-2,4(1H,3H)-dione hydrochloride] |  |  |  | 4.2 nM | 9.3 nM | 1.63 nM | 
COc1cccc2c1[C@@H]1CN(CCn3c(=O)[nH]c4c(sc5ccccc54)c3=O)C[C@@H]1CO2.Cl (racemic) [Example 65, 3-[2-((±)-cis-9-Methoxy-1,2,3,3a,4,9b-hexahydro-[1]-benzopyrano[3,4-c]pyrrol-2-yl)ethyl]-[1]benzthieno[3,2-d]pyrimidine-2,4(1H,3H)-dione hydrochloride] |  |  |  | 15 nM | 20.7 nM | 1.82 nM | 
COc1cccc2c1[C@@H]1CN(CCCn3c(=O)[nH]c4c(sc5ccccc54)c3=O)C[C@@H]1CO2.Cl (racemic) [Example 66, 3-[3-((±)-cis-9-Methoxy-1,2,3,3a,4,9b-hexahydro-[1]-benzopyrano[3,4-c]pyrrol-2-yl)propyl]-[1]benzthieno[3,2-d]pyrimidine-2,4(1H,3H)-dione hydrochloride] |  |  |  | 214 nM | 533 nM | 24.8 nM | 
COc1cccc2c1OC[C@H]1CN(CCn3c(=O)[nH]c4c(sc5ccccc54)c3=O)C[C@@H]21.Cl (racemic) [Example 67, 3-[2-((±)-cis-6-Methoxy-1,2,3,3a,4,9b-hexahydro-[1]-benzopyrano[3,4-c]pyrrol-2-yl)ethyl]-[1]benzthieno[3,2-d]pyrimidine-2,4(1H,3H)-dione hydrochloride] |  |  |  | 116 nM | 248 nM | 77.2 nM | 
COc1cccc2c1OC[C@H]1CN(CCCn3c(=O)[nH]c4c(sc5ccccc54)c3=O)C[C@@H]21.Cl (racemic) [Example 68, 3-[3-((±)-cis-6-Methoxy-1,2,3,3a,4,9b-hexahydro-[1]-benzopyrano[3,4-c]pyrrol-2-yl)propyl]-[1]benzthieno[3,2-d]pyrimidine-2,4(1H,3H)-dione hydrochloride] |  |  |  | 40.6 nM | 23.6 nM | 7.82 nM | 
Cl.O=c1[nH]c2c(sc3ccccc32)c(=O)n1CCN1C[C@@H]2COc3ccccc3[C@@H]2C1 (racemic) [Example 69, 3-[2-((±)-cis-1,2,3,3a,4,9b-hexahydro-[1]-benzopyrano[3,4-c]pyrrol-2-yl)ethyl]-[1]benzthieno[3,2-d]pyrimidine-2,4(1H,3H)-dione hydrochloride] |  |  |  | 0.665 nM | 4.35 nM | 0.344 nM | 
O=c1[nH]c2c(sc3cccnc32)c(=O)n1CCCCN1C[C@@H]2COc3ccccc3[C@@H]2C1 (racemic) [Example 70, 3-[4-((±)-cis-1,2,3,3a,4,9b-hexahydro-[1]-benzopyrano[3,4-c]pyrrol-2-yl)butyl]-pyrido[2',3':4,5]thieno[3,2-d]pyrimidine-2,4(1H,3H)-dione dihydrochloride] |  |  |  | 0.17 nM | 0.724 nM | 0.082 nM | 
COc1cccc2c1[C@H]1CN(CCCCn3c(=O)[nH]c4c(sc5nccnc54)c3=O)C[C@@H]1CO2.Cl.Cl (racemic) [Example 74, 3-[4-((±)-trans-9-Methoxy-1,2,3,3a,4,9b-hexahydro-[1]-benzopyrano[3,4-c]pyrrol-2-yl)butyl]-pyrazino[2',3':4,5]thieno[3,2-d]pyrimidine-2,4(1H,3H)-dione dihydrochloride] |  |  |  | 3.29 nM | 14.3 nM | 1.53 nM | 
COc1cc2[nH]c(=O)n(CCCCN3C[C@@H]4COc5ccccc5[C@@H]4C3)c(=O)c2cc1OC (racemic) [Example 81, 3-[4-((±1-cis-1,2,3,3a,4,9b-hexahydro-[1]-benzopyrano[3,4-c]pyrrol-2-yl)butyl]-6,7-dimethoxy-quinazoline-2,4(1H,3H)-dione hydrochloride] | 0.045 nM | 0.192 nM | 0.052 nM |  |  |  | 
COc1cccc2c1[C@@H]1CCN(CCCCn3c(=O)[nH]c4c(sc5ncccc54)c3=O)C[C@H]1CO2 (racemic) [Example 85, 3-[4-((±)-trans-10-Methoxy-1,3,4,4a,5,10b-hexahydro-2H-[1]-benzopyrano[3,4-c]pyrido-3-yl)butyl]-pyrido[3',2':4,5]thieno[3,2-d]pyrimidine-2,4(1H,3H)-dione dihydrochloride] | 0.419 nM | 1.89 nM | 0.336 nM |  |  |  | 
COc1cnc2sc3c(=O)n(CCCCN4CC5COc6cccc(OC)c6[C@@H]5C4)c(=O)[nH]c3c2n1.Cl (stereo in doubt) [Example 43, 3-[4-((3aS,9bR)-trans-9-Methoxy-1,2,3,3a,4,9b-hexahydro-[1]-benzopyrano[3,4-c]pyrrol-2-yl)butyl]-8-methoxy-pyrazino[2',3':4,5]thieno[3,2-d]pyrimidine-2,4(1H,3H)-dione hydrochloride] | 0.114 nM | 1.49 nM | 0.037 nM |  |  |  | 
COc1cc2nc(N3CCN(C(=O)C4COc5ccccc5O4)CC3)nc(N)c2cc1OC (stereo not drawn) [Doxazosin, doxazosin, reference compound] |  |  |  |  |  |  | Ki [1]: 0.423 nM; Ki [2]: 0.793 nM; Ki [3]: 0.912 nM
COc1cccc2c1[C@@H]1CN(CCCCn3c(=O)[nH]c4c(sc5cccnc54)c3=O)C[C@@H]1CO2 [Example 1, 3-[4-((3aR,9bR)-cis-9-Methoxy-1,2,3,3a,4,9b-hexahydro-[1]-benzopyrano[3,4-c]pyrrol-2-yl)butyl]-pyrido[2',3':4,5]thieno[3,2-d]pyrimidine-2,4(1H,3H)-dione hydrochloride] | 0.045 nM | 1.14 nM | 0.024 nM |  |  |  | 
COc1cccc2c1[C@H]1CN(CCCCn3c(=O)[nH]c4c(sc5cccnc54)c3=O)C[C@H]1CO2 [Example 2, 3-[4-((3aS,9bS)-cis-9-Methoxy-1,2,3,3a,4,9b-hexahydro-[1]-benzopyrano[3,4-c]pyrrol-2-yl)butyl]-pyrido[2',3':4,5]thieno[3,2-d]pyrimidine-2,4(1H,3H)-dione hydrochloride] | 0.95 nM | 9.23 nM | 0.193 nM |  |  |  | 
COc1cccc2c1[C@@H]1CN(CCCCn3c(=O)[nH]c4c(sc5cccnc54)c3=O)C[C@H]1CO2 [Example 3, 3-[4-((3aS,9bR)-trans-9-Methoxy-1,2,3,3a,4,9b-hexahydro-[1]-benzopyrano[3,4-c]pyrrol-2-yl)butyl]-pyrido[2',3':4,5]thieno[3,2-d]pyrimidine-2,4(1H,3H)-dione hydrochloride] | 0.026 nM | 0.286 nM | 0.02 nM |  |  |  | 
